# EP0903346A1, “SYDNONE IMINE DERIVATIVES” (Chugai Seiyaku Kabushiki Kaisha, priority 1995, dated 1997)
# Where two headings read alike, the source gives them in different places.
# Assays:
# [1] = test system: isolated rat aorta; assay: Test with the use of isolated rat aorta (relaxation of potassium chloride contraction); details: read-out: Rat aorta IC50
# Protocol: The thoracic aorta was taken out from male Sprague Dawley rats weighing 450 to 600 g and cut into circular samples of 2 mm in width. […] The contraction reactions of the samples were isometrically recorded with FD pick-up. After 1 to 1.5 hours of equilibration, 30 mM potassium chloride was added to contract the tissue. […] As the test compounds, the invention compounds obtained in the above Examples were employed.
# [2] = test system: anesthetized rat; assay: Blood pressure-lowering effect in anesthetized rat; format: in vivo; details: duodenal administration; for Blood pressure-lowering effect ED30: dose causing a decrease in the blood pressure by 30%; for Blood pressure-lowering effect Half duration: half duration at ED30 (recovery to 50% of the maximum decrease in blood pressure)
# Protocol: Male Sprague Dawley rats weighing 280 to 450 g were anesthetized with sodium pentobarbital (50 mg/kg, i.p.) and fixed in the supine position. A canula was inserted into the trachea of each animal. Then the blood pressure of the animal was measured (AP-621G, Nippon Kohden Corp.) through a polyethylene tube (PE50) inserted into the right femoral artery via a pressure transducer (Life Kit DTS, DX-300, Nippon Kohden Corp.) and the heart rate was determined from the pulse wave (AT-610G, Nippon Kohden Corp.). A canula (PE10) for injecting the maintenance anesthetic drug (sodium pentobarbital 20 mg/kg/h) was inserted into the right femoral vein. The abdominal region was medianly sectioned and a canula (PE50 connected to a injection needle 23G) for duodenal drug administration was inserted thereinto and fixed with Aronalpha for surgical use. After 60-90 minutes of recovery period, the drug was administered into duodenum. After administering the drug, the blood pressure was measured until the average blood pressure returned to the level before the administration.
# As the indication of the blood pressure-lowering effect of each drug, the dose causing a decrease in the blood pressure by 30%, based on the level before the administration, was calculated from the dose-response curve and employed as the 30% effective dose (ED30). Moreover, the time required for the recovery to the level corresponding to 50% of the maximum decrease in the blood pressure (half duration) was measured at each dose. Then the half duration at the above-mentioned ED30 was calculated and employed as the indication of the lasting time of the blood pressure-lowering effect (half duration at ED30).
# As the test compounds, use was made of the compounds of the present invention obtained in the above Examples. Table C summarizes the results. Table C
# [3] = relaxation of continuous contraction due to 30 mM potassium chloride, thoracic aorta of male Sprague Dawley rats
compound,measurement,setting,value
"COc1cc(CN2CCN([n+]3cc([N-]C(=O)CSC(=O)c4ccccc4)on3)CC2)cc(OC)c1OC [Example 49, N-((Benzoylthio)acetyl)-3-(4-(3,4,5-trimethoxyphenylmethyl)piperazin-1-yl)sydnonimine]",IC50,[1]; [3],46 nM
"CCN1CCN([n+]2cc([N-]C(=O)CSC(C)=O)on2)CC1 [Example 85, N-(Acetylthioacetyl)-3-(4-ethylpiperazin-1-yl)sydnonimine]",Blood pressure-lowering effect ED30,[2],0.3 mg/kg
same,Blood pressure-lowering effect Half duration,[2],44 min
"CC(=O)SC[C@@H](C)C(=O)[N-]c1c[n+](N2CCN(C)CC2)no1 [Example 78, N-((S)-3-(Acetylthio)isobutyryl)-3-(4-methylpiperazin-1-yl)sydnonimine]",Blood pressure-lowering effect ED30,[2],1.0 mg/kg
same,Blood pressure-lowering effect Half duration,[2],40 min
"CC(C)N1CCN([n+]2cc([N-]C(=O)CCSC(=O)c3ccc(F)cc3)on2)CC1 [Example 137, N-(3-(4-Fluorobenzoylthio)propionyl)-3-(4-isopropylpiperazin-1-yl)sydnonimine]",Blood pressure-lowering effect ED30,[2],0.6 mg/kg
same,Blood pressure-lowering effect Half duration,[2],46 min
"COc1ccc(CN2CCN([n+]3cc([N-]C(=O)CSC(=O)c4ccccc4)on3)CC2)c(OC)c1OC [Example 51, N-((Benzoylthio)acetyl)-3-(4-(2,3,4-trimethoxyphenylmethyl)piperazin-1-yl)sydnonimine]",IC50,[1]; [3],300 nM
"Cc1cccc(C)c1C(=O)SCC(=O)[N-]c1c[n+](N2CCN(C)CC2)no1 [Example 132, N-((2,6-Dimethylbenzoylthio)acetyl)-3-(4-methylpiperazin-1-yl)sydnonimine]",Blood pressure-lowering effect ED30,[2],0.7 mg/kg
same,Blood pressure-lowering effect Half duration,[2],44 min
"Cc1c(C)c2c(c(C)c1O)CCC(C)(C(=O)SCC(=O)[N-]c1c[n+](N3CCN(C)CC3)no1)O2 (stereo not drawn) [Example 191, N-((6-Hydroxy-2,5,7,8-tetramethylchroman-2-carbonylthio)acetyl)-3-(4-methylpiperazin-1-yl)sydnonimine]",Blood pressure-lowering effect ED30,[2],1.0 mg/kg
same,Blood pressure-lowering effect Half duration,[2],58 min
"CC(C)(C)c1cc(SCC(=O)N2CCN([n+]3cc([N-]C(=O)CSC(=O)c4ccccc4)on3)CC2)cc(C(C)(C)C)c1O [Example 33, N-((Benzoylthio)acetyl)-3-(4-(3,5-di-t-butyl-4-hydroxyphenylthio)acetylpiperazin-1-yl)sydnonimine]",IC50,[1]; [3],180 nM
"CC(=O)SCCC(=O)[N-]c1c[n+](N2CCN(Cc3ccccc3)CC2)no1 [Example 119, N-(3-(Acetylthio)propionyl)-3-(4-benzylpiperazin-1-yl)sydnonimine]",Blood pressure-lowering effect ED30,[2],1.2 mg/kg
same,Blood pressure-lowering effect Half duration,[2],49 min
"COc1cc(CC(=O)N2CCN([n+]3cc([N-]C(=O)CSC(C)=O)on3)CC2)cc(OC)c1OC [Example 40, N-((Acetylthio)acetyl)-3-(4-((3,4,5-trimethoxyphenyl)acetyl)piperazin-1-yl)sydnonimine]",IC50,[1],280 nM
"COc1cc(CC(=O)[N-]c2c[n+](N3CCN(C)CC3)no2)cc(OC)c1OC [Example 42, N-((3,4,5-Trimethoxyphenyl)acetyl)-3-(4-methylpiperazin-1-yl)sydnonimine]",Blood pressure-lowering effect ED30,[2],4.0 mg/kg
same,Blood pressure-lowering effect Half duration,[2],60 min
"C[C@H](CSC(=O)c1ccccc1)C(=O)[N-]c1c[n+](N2CCN(Cc3ccccc3)CC2)no1 [Example 18, N-((S)-3-(Benzoylthio)isobutyryl)-3-(4-benzylpiperazin-1-yl)sydnonimine]",Blood pressure-lowering effect ED30,[2],2.0 mg/kg
same,Blood pressure-lowering effect Half duration,[2],62 min
"Cc1cccc(C)c1C(=O)SCCC(=O)[N-]c1c[n+](N2CCN(C)CC2)no1 [Example 141, N-(3-(2,6-Dimethylbenzoylthio)propionyl)-3-(4-methylpiperazin-1-yl)sydnonimine]",Blood pressure-lowering effect ED30,[2],0.5 mg/kg
same,Blood pressure-lowering effect Half duration,[2],48 min
"CN1CCN([n+]2cc([N-]C(=O)CCSC(=O)Nc3ccccc3)on2)CC1 [Example 171, N-(3-(Phenylcarbamoylthio)propionyl)-3-(4-methylpiperazin-1-yl)sydnonimine]",Blood pressure-lowering effect ED30,[2],0.3 mg/kg
same,Blood pressure-lowering effect Half duration,[2],45 min
"CC(C)N1CCN([n+]2cc([N-]C(=O)CCSC(=O)c3ccccc3)on2)CC1 [Example 129, N-(3-(Benzoylthio)propionyl)-3-(4-isopropylpiperazin-1-yl)sydnonimine]",Blood pressure-lowering effect ED30,[2],1.3 mg/kg
same,Blood pressure-lowering effect Half duration,[2],42 min
"3-(4-Benzylpiperazin-1-yl)-N-((3,4,5-trimethoxyphenyl)acetyl)sydnonimine [Example 17]",Blood pressure-lowering effect ED30,[2],1.4 mg/kg
same,Blood pressure-lowering effect Half duration,[2],21 min
"C[C@H](CSC(=O)c1ccccc1)C(=O)[N-]c1c[n+](N2CCN(CC(F)(F)F)CC2)no1 [Example 70, N-((S)-3-(Benzoylthio)isobutyryl)-3-(4-(2,2,2-trifluoroethyl)piperazin-1-yl)sydnonimine]",Blood pressure-lowering effect ED30,[2],0.7 mg/kg
same,Blood pressure-lowering effect Half duration,[2],41 min
"CC(=O)N[C@@H](CSC(=O)c1ccc(F)cc1)C(=O)[N-]c1c[n+](N2CCN(C)CC2)no1 [Example 185, N-((R)-2-Acetylamino-3-(4-fluorobenzoylthio)propionyl)-3-(4-methylpiperazin-1-yl)sydnonimine]",Blood pressure-lowering effect ED30,[2],1.5 mg/kg
same,Blood pressure-lowering effect Half duration,[2],53 min
"CCN1CCN([n+]2cc([N-]C(=O)CCSC(=O)C(C)(C)C)on2)CC1 [Example 155, N-(3-(Pivaloylthio)propionyl)-3-(4-ethylpiperazin-1-yl)sydnonimine]",Blood pressure-lowering effect ED30,[2],0.2 mg/kg
same,Blood pressure-lowering effect Half duration,[2],46 min
"CCN1CCN([n+]2cc([N-]C(=O)CCSC(C)=O)on2)CC1 [Example 122, N-(3-(Acetylthio)propionyl)-3-(4-ethylpiperazin-1-yl)sydnonimine]",Blood pressure-lowering effect ED30,[2],0.6 mg/kg
same,Blood pressure-lowering effect Half duration,[2],48 min
"CCNC(=O)SCCC(=O)[N-]c1c[n+](N2CCN(CC)CC2)no1 [Example 163, N-(3-(Ethylcarbamoylthio)propionyl)-3-(4-ethylpiperazin-1-yl)sydnonimine]",Blood pressure-lowering effect ED30,[2],0.2 mg/kg
same,Blood pressure-lowering effect Half duration,[2],44 min
"CC(=O)N[C@@H](CSC(C)=O)C(=O)[N-]c1c[n+](N2CCN(C(C)C)CC2)no1 [Example 183, N-((R)-2-Acetylamino-3-(acetylthio)propionyl)-3-(4-isopropylpiperazin-1-yl)sydnonimine]",Blood pressure-lowering effect ED30,[2],1.0 mg/kg
same,Blood pressure-lowering effect Half duration,[2],47 min
"CCN1CCN([n+]2cc([N-]C(=O)CCSC(=O)c3c(F)cccc3F)on2)CC1 [Example 146, N-(3-(2,6-Difluorobenzoylthio)propionyl)-3-(4-ethylpiperazin-1-yl)sydnonimine]",Blood pressure-lowering effect ED30,[2],0.6 mg/kg
same,Blood pressure-lowering effect Half duration,[2],45 min
"C[C@H](CSC(=O)c1ccccc1)C(=O)[N-]c1c[n+](N2CCN(C3CCCC3)CC2)no1 [Example 72, N-((S)-3-(Benzoylthio)isobutyryl)-3-(4-cyclopentylpiperazin-1-yl)sydnonimine]",Blood pressure-lowering effect ED30,[2],1.3 mg/kg
same,Blood pressure-lowering effect Half duration,[2],47 min
"CC(=O)N[C@@H](CSC(C)=O)C(=O)[N-]c1c[n+](N2CCN(C)CC2)no1 [Example 181, N-((R)-2-Acetylamino-3-(acetylthio)propionyl)-3-(4-methylpiperazin-1-yl)sydnonimine]",Blood pressure-lowering effect ED30,[2],0.8 mg/kg
same,Blood pressure-lowering effect Half duration,[2],60 min
"CC(=O)SC[C@@H](C)C(=O)[N-]c1c[n+](N2CCN(C(C)C)CC2)no1 [Example 80, N-((S)-3-(Acetylthio)isobutyryl)-3-(4-isopropylpiperazin-1-yl)sydnonimine]",Blood pressure-lowering effect ED30,[2],0.6 mg/kg
same,Blood pressure-lowering effect Half duration,[2],49 min
"CN1CCN([n+]2cc([N-]C(=O)CCSc3cc(C(C)(C)C)c(O)c(C(C)(C)C)c3)on2)CC1 [Example 179, N-(3-(3,5-Di-t-butyl-4-hydroxyphenylthio)propionyl)-3-(4-methylpiperazin-1-yl)sydnonimine]",Blood pressure-lowering effect ED30,[2],0.9 mg/kg
same,Blood pressure-lowering effect Half duration,[2],43 min
"CN1CCN([n+]2cc([N-]C(=O)CCCSC(=O)c3ccccc3)on2)CC1 [Example 174, N-(4-(Benzoylthio)butyryl)-3-(4-methylpiperazin-1-yl)sydnonimine]",Blood pressure-lowering effect ED30,[2],0.5 mg/kg
same,Blood pressure-lowering effect Half duration,[2],43 min
"CCOC(=O)[N-]c1cn(N2CCOCC2)n[o+]1 [molsidomine, reference compound]",Blood pressure-lowering effect ED30,[2],0.3 mg/kg
same,Blood pressure-lowering effect Half duration,[2],39 min
